{Cy3} = Cy3 dye attached by click chemistry
Columns and labels:
Myzus persicae [1] = test: Cy3-PNA in artificial diet, aphid survival (Example 13); type: in vivo; details: Myzus persicae second and third instar, final 0.5 to 10 mg/L Cy3-PNA, fed 24 hr, mortality checked every 24 h for 4 days
Protocol: Therapeutic Design: Cy3-PNA Solutions are Formulated with 0, 0.5, 1, 5 or 10 mg/L of Cy3-PNA from Example 11 in 10 mL of 0.5% Sucrose and Essential Amino Acids.
(§1) To prepare for the treatment, aphids are grown in a lab environment and medium. In a climate-controlled room (16 h light photoperiod; 60±5% RH; 20±2° C.), plants are grown in a mixture of vermiculite and perlite and are infested with aphids. To limit maternal effects or health differences between plants, 5-10 adults from different plants are distributed among 10 two-week-old plants, and allowed to multiply to high density for 5-7 days. For experiments, second and third instar aphids are collected from healthy plants and divided into treatments so that each treatment receives approximately the same number of individuals from each of the collection plants.
Wells of a 96-well plate are filled with 200 μl of artificial aphid diet (Febvay et al., Canadian Journal of Zoology 66(11):2449-2453, 1988) and the plate is covered with parafilm to make a feeding sachet. Artificial diet is either mixed with the solution of sterile water with 0.5% sucrose and essential amino acids only as a negative control, or mixed with Cy3-PNA solutions. Cy3-PNA solutions are mixed with artificial diet to obtain final concentrations between 0.5 to 10 mg/L. […]

[2] = system: its target bacterial strains; details: against its target bacterial strains; cited from earlier work
Myzus persicae [3] = test: Bcr1 dsRNA in artificial diet, aphid survival (Example 9); type: in vivo; details: Myzus persicae second and third instar, final 0.5 to 5 μg/ml dsRNA, fed 24 hr, mortality checked every 24 h for 4 days
Protocol: (§2) Aphids are one of the most important agricultural insect pests. They cause direct feeding damage to crops and serve as vectors of plant viruses. In addition, aphid honeydew promotes the growth of sooty mold and attracts nuisance ants. The use of chemical treatments, unfortunately still widespread, leads to the selection of resistant individuals whose eradication becomes increasingly difficult. Therapeutic design: dsRNA solutions are formulated with 0 (negative control), 0.5, 1, or 5 μg/mL of Bcr1 dsRNA from Example 7 in 10 mL of TE buffer with 0.5% sucrose and essential amino acids.
as §1, with “(16 hr” for “(16 h”, “plants. […]” for “plants.”

Rhopalosiphum maidis = test: Bcr1 dsRNA in artificial diet, aphid survival (Example 3); type: in vivo; details: Rhopalosiphum maidis second and third instar, final 0.5 to 5 μg/ml dsRNA, fed 24 hr, mortality checked every 24 h for 4 days
Protocol: as §2, with “μg/ml” for “μg/mL”, “2” for “7”
as §1, with “C.), fava bean” for “C.),”, “plants. […]” for “plants.”

Cy3-Gaatgcagctgc (antisense GAATGCAGCTGC; all peptide nucleic acid (PNA), 5' {Cy3}; Cy3 attached via DBCO-azide click chemistry) [Cy3-PNA, antisense PNA against bacteriocyte target gene Bcr1 joined to Cy3 dye through click chemistry]
survival rate of aphids compared to the control treated aphids (Myzus persicae [1]): decreased

ITSISLCTPGCKTGALMGCNMKTATCHCSIHVSK [nisin]
concentration showing antimicrobial activity [2]: single-digit nanomolar concentration

B1: Bcr1 dsRNA: dsRNA hairpin targeting the Bcr1 gene (ACYPI32128), SEQ ID NO: 93 (nucleic acid, listed as Acyrthosiphon pisum)
chain: AUGAAACUGCUGCAUGGCUUUCUGAUUAUUAUGCUGACCAUGCAUCUGAGCAUUCAGUAUGCGUAUGGCGGCCCGUUUCUGACCAAAUAUCUGUGCGAUCGCGUGUGCCAUAAACUGUGCGGCGAUGAAUUUGUGUGCAGCUGCAUUCAGUAUAAAAGCCUGAAAGGCCUGUGGUUUCCGCAUUGCCCGACCGGCAAAGCGAGCGUGGUGCUGCAUAACUUUCUGACCAGCCCGUUUUUUUUUUCGGGCUGGUCAGAAAGUUAUGCAGCACCACGCUCGCUUUGCCGGUCGGGCAAUGCGGAAACCACAGGCCUUUCAGGCUUUUAUACUGAAUGCAGCUGCACACAAAUUCAUCGCCGCACAGUUUAUGGCACACGCGAUCGCACAGAUAUUUGGUCAGAAACGGGCCGCCAUACGCAUACUGAAUGCUCAGAUGCAUGGUCAGCAUAAUAAUCAGAAAGCCAUGCAGCAGUUUCAU
survival rate of aphids compared to the control treated aphids (Myzus persicae [3]): decreased
survival rate of aphids compared to the control treated aphids (Rhopalosiphum maidis): decreased

From patent US11974574B2, “Compositions and related methods for modulating endosymbionts” (Flagship Pioneering Innovations V, Inc., priority 2017, dated 2024)
